Test results: patent publication US12637661B2, “Methods of enhancing stem cell differentiation into beta cells” (Vertex Pharmaceuticals Incorporated, priority 2018, dated 2026)

Key:
EZH2 = EZH2 (Homo sapiens, UniProt Q15910); conditions: cited from earlier work
[1] = tested on: stage 5 cells of hESC line (D97, D114, and D241 HUES8); test: Stage 5 of directed differentiation of hESC line treated with EZH2 inhibitor, HDAC inhibitor or combination; type: cell-based, human; conditions: for percentage of pre-SC-β cells (C-PEP+, NKX6-1+): stage 5, FIG. 15; for performance compared with other inhibitors of the same class: stage 5, FIGS. 14 and 15; for proportion of all β cell types: stage 5, FIG. 14
Procedure: The mRNA expression of NGN3 was investigated in each steps of directed differentiation described herein (FIG. 5), and it was observed that cells expressed NGN3 to initiate SC-β cell differentiation (FIG. 7). The effects of inhibition of histone methylation and deacetylation on SC-β cell differentiation were investigated (FIG. 6). Stage 5 of the directed differentiation as described herein (FIGS. 5-6) in hESC line (D97, D114, and […] HUES8) was treated with an EZH2 inhibitor (DZNep), HDAC inhibitor (KD5170), and a combination thereof (FIG. 6). Candidate inhibitor screening was performed as described in FIG. 18. Inhibition of EZH2 or HDAC in stage 5 (D97 HUES8) increased endocrine cells and SC-β cells (FIG. 8). […] SC-β cells comprised 35.4% at the end of stage 5 with DZNep and KD5170. […] Combined inhibition of EZH2 and HDAC in stage 5 was tested as described in FIG. 17. Combined inhibition of EZH2 and HDAC in stage 5 ([…] HUES8) increased Neorogenin3+ progenitors in stage 5 (FIGS. 12-13). Combined inhibition of EZH2 and HDAC in stage 5 increased NKX6.1+ progenitor cells (FIG. 16).

Chain of EZH2 (Q15910 whole entry, species assumed): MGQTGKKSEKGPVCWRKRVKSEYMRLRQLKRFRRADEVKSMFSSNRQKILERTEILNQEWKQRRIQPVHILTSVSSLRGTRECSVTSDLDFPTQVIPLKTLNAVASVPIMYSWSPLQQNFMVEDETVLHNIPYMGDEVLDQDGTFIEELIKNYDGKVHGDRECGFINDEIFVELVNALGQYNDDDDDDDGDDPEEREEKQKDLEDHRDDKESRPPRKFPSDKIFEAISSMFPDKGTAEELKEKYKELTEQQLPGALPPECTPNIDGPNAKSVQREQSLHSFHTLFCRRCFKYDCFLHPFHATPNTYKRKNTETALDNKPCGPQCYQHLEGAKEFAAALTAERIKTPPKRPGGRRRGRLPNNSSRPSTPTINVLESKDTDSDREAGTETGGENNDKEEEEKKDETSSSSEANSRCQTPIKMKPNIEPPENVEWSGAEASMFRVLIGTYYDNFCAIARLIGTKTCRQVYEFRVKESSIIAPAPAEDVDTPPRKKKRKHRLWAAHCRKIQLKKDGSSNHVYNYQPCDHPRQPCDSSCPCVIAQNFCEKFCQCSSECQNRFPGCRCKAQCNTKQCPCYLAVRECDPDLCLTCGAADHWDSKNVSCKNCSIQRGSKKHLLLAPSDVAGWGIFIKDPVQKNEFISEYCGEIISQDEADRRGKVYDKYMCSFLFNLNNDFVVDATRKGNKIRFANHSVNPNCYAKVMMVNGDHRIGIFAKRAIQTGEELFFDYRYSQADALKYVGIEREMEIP
Chain of EZH2 (O75530 whole entry partner, species assumed): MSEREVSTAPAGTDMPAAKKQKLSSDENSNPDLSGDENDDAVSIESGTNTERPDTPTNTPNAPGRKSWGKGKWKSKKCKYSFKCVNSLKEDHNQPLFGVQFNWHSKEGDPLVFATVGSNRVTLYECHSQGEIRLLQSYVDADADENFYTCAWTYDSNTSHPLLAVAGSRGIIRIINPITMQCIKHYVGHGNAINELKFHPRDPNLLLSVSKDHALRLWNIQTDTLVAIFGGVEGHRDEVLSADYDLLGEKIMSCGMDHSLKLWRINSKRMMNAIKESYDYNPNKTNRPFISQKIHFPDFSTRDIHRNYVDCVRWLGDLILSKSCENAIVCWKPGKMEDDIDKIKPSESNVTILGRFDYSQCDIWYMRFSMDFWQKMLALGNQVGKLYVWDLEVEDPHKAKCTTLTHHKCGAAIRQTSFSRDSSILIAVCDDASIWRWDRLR
Chain of EZH2 (Q15022 whole entry partner, species assumed): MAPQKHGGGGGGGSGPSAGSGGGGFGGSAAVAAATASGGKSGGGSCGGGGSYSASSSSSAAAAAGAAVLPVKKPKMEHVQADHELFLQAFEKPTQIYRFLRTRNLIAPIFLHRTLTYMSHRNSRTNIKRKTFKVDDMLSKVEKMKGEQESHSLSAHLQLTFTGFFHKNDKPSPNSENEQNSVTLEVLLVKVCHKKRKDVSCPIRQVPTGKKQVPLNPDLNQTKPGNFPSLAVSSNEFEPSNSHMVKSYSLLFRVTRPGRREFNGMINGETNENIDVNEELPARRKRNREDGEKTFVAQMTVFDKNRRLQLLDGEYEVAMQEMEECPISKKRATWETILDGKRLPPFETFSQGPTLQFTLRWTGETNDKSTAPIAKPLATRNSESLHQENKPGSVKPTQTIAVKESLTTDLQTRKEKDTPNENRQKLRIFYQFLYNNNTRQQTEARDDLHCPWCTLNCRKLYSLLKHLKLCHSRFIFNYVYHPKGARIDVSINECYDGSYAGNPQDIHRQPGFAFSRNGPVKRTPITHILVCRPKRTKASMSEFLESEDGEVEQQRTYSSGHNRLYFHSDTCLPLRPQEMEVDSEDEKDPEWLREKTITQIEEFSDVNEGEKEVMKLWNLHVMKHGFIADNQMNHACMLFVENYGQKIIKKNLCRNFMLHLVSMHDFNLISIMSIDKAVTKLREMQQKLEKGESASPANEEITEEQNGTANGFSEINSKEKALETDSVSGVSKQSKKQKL

Nc1nccc2c1ncn2[C@@H]1C=C(CO)[C@@H](O)[C@H]1O [DZNep, 3-deazaneplanocin A]
selectivity / specificity for EZH2 (in words) (EZH2): may not be specific to EZH2
viability ([1]; 1 μM throughout stage 5): without affecting viability
(VMAT1+INS−) EC population removed ([1]; 1 μM throughout stage 5, FIGS. 19-21): more than half
proportion / differentiation of endocrine cells (CHGA+) ([1]; stage 5): increased
percentage of pre-SC-β cells (C-PEP+, NKX6-1+) [1]: increased
progenitors cells (NKX6-1+) ([1]; stage 5, FIG. 16): increased
VMAT1+INS− EC population ([1]; stage 5, FIG. 19): specific decrease
NKX6.1-ChromA+ PH cells ([1]; stage 5, FIG. 20): concomitant increase
NKX6.1+INS+ SC-β cell population ([1]; stage 5, FIG. 21): unaffected
performance compared with other inhibitors of the same class [1]: outperforms other EZH2 inhibitors

CC[C@H](C)n1cc(C)c2c(C(=O)NCc3c(C)cc(C)[nH]c3=O)cc(-c3ccc(N4CCNCC4)nc3)cc21 [GSK126]
proportion of all β cell types [1]: did not increase

CC(=O)SCC(=O)c1ccc(NS(=O)(=O)c2ccc(OCCCN(C)C)cc2)nc1 [KD5170]
percentage of pre-SC-β cells (C-PEP+, NKX6-1+) [1]: increased
performance compared with other inhibitors of the same class [1]: outperforms other HDAC inhibitors

O=C(CCCCCCC(=O)Nc1ccccc1)NO [SAHA]
percentage of pre-SC-β cells (C-PEP+, NKX6-1+) [1]: did not increase

CC(/C=C/C(=O)NO)=C\[C@@H](C)C(=O)c1ccc(N(C)C)cc1 [TSA]
percentage of pre-SC-β cells (C-PEP+, NKX6-1+) [1]: did not increase

CCCc1cc(C)[nH]c(=O)c1CNC(=O)c1cc(-c2ccc(N3CCN(C(C)C)CC3)nc2)cc2c1cnn2C(C)C [UNC1999]
selectivity / specificity for EZH2 (in words) (EZH2): less selective
proportion of all β cell types [1]: did not increase

CCCC(=O)[O-].[Na+] [sodium butyrate]
percentage of pre-SC-β cells (C-PEP+, NKX6-1+) [1]: did not increase
